Literature values, collected in paper PMC4703502 (Pharmacology & therapeutics, 2015).
Read-outs that look alike come from different tables or passages of the source.

Assays:
[1] = test system: spermatogenesis
[2] = test system: fertility; details: ref Tash et al., 2008
[3] = test system: inhibin B; details: in vivo; ref Tash et al., 2008a
[4] = test system: spermatozoa; details: ref O’Rand & Widgren, 2012

## CC1(C)CC=C(c2cnc3ccccc3c2)c2cc(C(=O)Nc3ccc(C(=O)O)cc3)ccc21 [BMS-195614]
[1]; tested in vivo, ref Chung et al., 2013
  effect on spermatogenesis: no effect

## O=C(O)/C=C/c1nn(Cc2ccc(Cl)cc2Cl)c2cc(C(F)(F)F)ccc12 [Gamendazole]
[2]; daily treatment with 6 mg/kg during 7 days
  fertility recovery: 29%
[2]; rats, 3 mg/kg single oral dose
  fertility recovery: complete recovery
  infertility: not complete infertility
[3]
  serum levels of inhibin B: fall below measurable levels

## O=C(NCCCCCCCCNC(=O)C(Cl)Cl)C(Cl)Cl [WIN 18,446]
[1]; ref Amory et al., 2011
  effect on spermatogenesis: completely stops spermatogenesis

## BMS-189453
[1]; ref Chung et al., 2011
  effect on spermatogenesis: inhibit spermatogenesis

B1: SEMG1: semenogelin, seminal plasma protein that binds EPPIN on the sperm surface (protein, UniProt P04279 24-462, looked up)
Semenogelin-1: QKGGSKGRLPSEFSQFPHGQKGQHYSGQKGKQQTESKGSFSIQYTYHVDANDHDQSRKSQQYDLNALHKTTKSQRHLGGSQQLLHNKQEGRDHDKSKGHFHRVVIHHKGGKAHRGTQNPSQDQGNSPSGKGISSQYSNTEERLWVHGLSKEQTSVSGAQKGRKQGGSQSSYVLQTEELVANKQQRETKNSHQNKGHYQNVVEVREEHSSKVQTSLCPAHQDKLQHGSKDIFSTQDELLVYNKNQHQTKNLNQDQQHGRKANKISYQSSSTEERRLHYGENGVQKDVSQSSIYSQTEEKAQGKSQKQITIPSQEQEHSQKANKISYQSSSTEERRLHYGENGVQKDVSQRSIYSQTEKLVAGKSQIQAPNPKQEPWHGENAKGESGQSTNREQDLLSHEQKGRHQHGSHGGLDIVIIEQEDDSDRHLAQHLNNDRNPLFT
[4]; 3μM SEMG1
  decrease in internal calcium levels: > 30%
[4]; SEMG1 bound to EPPIN on the sperm surface
  time to decrease in internal pH: less than 1 minute
